{
  "source": "patent US5364844A",
  "about": "“Renin-inhibitory oligopeptides, their preparation and use” (Sankyo Company, Limited, priority 1988, dated 1994)",
  "data": [
    {"target": "T1, human renin (Homo sapiens, UniProt P00797)", "T1 sequence (P00797 67-406)": "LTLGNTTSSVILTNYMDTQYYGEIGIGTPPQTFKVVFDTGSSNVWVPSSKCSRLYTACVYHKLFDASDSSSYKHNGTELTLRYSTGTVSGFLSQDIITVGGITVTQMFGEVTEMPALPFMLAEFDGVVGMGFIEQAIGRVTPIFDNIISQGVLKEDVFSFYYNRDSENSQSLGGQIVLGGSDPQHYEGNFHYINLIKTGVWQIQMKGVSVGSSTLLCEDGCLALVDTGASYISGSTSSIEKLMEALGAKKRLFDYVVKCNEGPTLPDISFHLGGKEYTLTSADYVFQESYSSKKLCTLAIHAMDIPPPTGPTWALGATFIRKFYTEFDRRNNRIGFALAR", "assay": "Inhibition of human renin activity (procedure of Kokubu et al.)", "type": "biochemical", "conditions": "sheep angiotensinogen, pH 7.3, 10 minutes at 37° C.; mean of 3 or 4 experiments", "procedure": "The ability of various compounds of the invention to inhibit the activity of renin was determined according to the following method, which follows essentially the procedure of Kokubu et al. [Hypertension, 5, 191-197 (1983)].\nSpecifically, each test compound was dissolved in 60% v/v aqueous ethanol. Human renin activity in the presence and absence of each compound was measured using sheep angiotensinogen. The total volume of 1 ml of assay mixture contained 0.1 mole/liter phosphate buffer (pH 7.3), human renin (equivalent to 0.5 ng angiotensin I per ml per minute), sheep angiotensinogen (equivalent to 200 ng angiotensin I), […], 6% v/v ethanol and angiotensinase inhibitors (10 mmole/liter sodium ethylenediaminetetraacetate and 3.4 mmole/liter 8-hydroxyquinoline). The mixture was allowed to react for 10 minutes at 37° C., and then the reaction was stopped by placing the reaction tube in a boiling water bath for 5 minutes. The mixture was then centrifuged and the supernatant (0.05-0.1 ml) was used to assay remaining angiotensin I.\nAn identical experiment was carried out, as a control, except that the test compound was omitted. From the values obtained were calculated the % inhibition of renin activity achieved by each test compound. The results are shown in the following Table 9, in which the compounds of the invention are identified by the numbers of the Examples given hereafter in which are described their preparation. The values given are the mean of 3 or 4 experiments.", "units": {"Inhibitory Activity (%) Against Human Renin": "%"}, "values": [
      {"smiles": "CC[C@H](C)CNC(=O)[C@@H](C[C@H](O)[C@H](CC1CCCCC1)NC(=O)[C@H](Cc1cscn1)NC(=O)[C@@H](CC(=O)N1CCOCC1)Cc1ccccc1)C(C)(C)O", "note": "[Example 5, (2S, 4S, 5S)-5-{N-[2(R)-Benzyl-3-(morpholinocarbonyl)propionyl]-3-(4-thiazolyl)-L-alanyl}amino-6-cyclohexyl-4-hydroxy-2-(1-hydroxy-1-methylethyl)-N-[2 (S)-methylbutyl]hexanamide]", "Inhibitory Activity (%) Against Human Renin": 92.2},
      {"smiles": "CC[C@H](C)CNC(=O)[C@@H](C[C@H](O)[C@H](CC1CCCCC1)NC(=O)[C@H](Cc1cscn1)NC(=O)[C@H](Cc1cccc2ccccc12)NC(=O)CN1CCOCC1)C(C)(C)O", "note": "[Example 2, (2S, 4S, 5S)-5-{N-[N-Morpholinoacetyl-3-(1-naphthyl)-L-alanyl]-3-(4-thiazolyl)-L-alanyl}amino-6-cyclohexyl-4-hydroxy-2-(1-hydroxy-1-methylethyl)-N-[2(S)-methylbutyl]hexanamide]", "Inhibitory Activity (%) Against Human Renin": 96.3},
      {"smiles": "CCC(C)CNC(=O)[C@@H](C[C@H](O)[C@H](CC(C)C)NC(=O)[C@H](Cc1cscn1)NC(=O)[C@@H](CC(=O)N(C)C1CCCCC1)Cc1cccc2ccccc12)C(C)(C)O", "note": "(mixture of isomers) [Example 8, (2S, 4S, 5S)-5-{N-[2(R)-(1-Naphthylmethyl)-3-(N-cyclohexyl-N-methylaminocarbonyl)propionyl]-3-(4-thiazolyl)-L-alanyl}amino-4-hydroxy-2-(1-hydroxy-1-methylethyl)-7-methyl-N-[2-(RS)-methylbutyl]octanamide]", "Inhibitory Activity (%) Against Human Renin": 97.4},
      {"smiles": "CC[C@H](C)CNC(=O)[C@@H](C[C@H](O)[C@H](CC1CCCCC1)NC(=O)[C@H](Cc1cscn1)NC(=O)[C@@H](CC(=O)N1CCOCC1)Cc1cccc2ccccc12)C(C)(C)O", "note": "[Example 4, (2S, 4S, 5S)-5-{N-[2(R)-(1-Naphthylmethyl)-3-(morpholinocarbonyl)propionyl]-3-(4-thiazolyl)-L-alanyl}amino-6-cyclohexyl-4-hydroxy-2-(1-hydroxy-1-methylethyl)-N-[2(S)-methylbutyl]hexanamide]", "Inhibitory Activity (%) Against Human Renin": 96.8},
      {"smiles": "CC[C@H](C)CNC(=O)[C@@H](C[C@H](O)[C@H](CC1CCCCC1)NC(=O)[C@H](Cc1cscn1)NC(=O)[C@H](Cc1ccccc1)NC(=O)CN1CCOCC1)C(C)(C)O", "note": "[Example 3, (2S, 4S, 5S)-S-{N-[N-Morpholinoacetyl-L-phenylalanyl]-3-(4-thiazolyl)-L-alanyl}amino-6-cyclohexyl-4-hydroxy-2-(1-hydroxy-1-methylethyl)-N-[2(S)-methylbutyl]hexanamide]", "Inhibitory Activity (%) Against Human Renin": 96.7},
      {"smiles": "CCC(C)CNC(=O)[C@@H](C[C@H](O)[C@H](CC(C)C)NC(=O)[C@H](Cc1cscn1)NC(=O)[C@H](Cc1cccc2ccccc12)NC(=O)OC(C)(C)C)C(C)(C)O", "note": "(mixture of isomers) [Example 7, (2S, 4S, 5S)-5-{N-[N-(t-Butoxycarbonyl)-3-(1-naphthyl)-L-alanyl]-3-(4-thiazolyl)-L-alanyl}amino-4-hydroxy-2-(1-hydroxy-1-methylethyl)-7-methyl-N-[2(RS)-methylbutyl]octanamide]", "Inhibitory Activity (%) Against Human Renin": 98.2},
      {"smiles": "CNC(=O)[C@@H](C[C@H](O)[C@H](CC1CCCCC1)NC(=O)[C@H](Cc1cscn1)NC(=O)[C@@H](CC(=O)N1CCOCC1)Cc1ccccc1)C(C)(C)O", "note": "[Example 9]", "Inhibitory Activity (%) Against Human Renin": 90.9}
    ]}
  ]
}
